Reference: article PMC6222316, “UPLC-MS/MS Method for the Determination of 14 Compounds in Rat Plasma and Its Application in a Pharmacokinetic Study of Orally Administered Xiaoyao Powder” (Molecules : A Journal of Synthetic Chemistry and Natural …, 2018)
Read-outs that look alike come from different tables or passages of the source.

Assay: Pharmacokinetic study of 14 compounds in rat plasma after oral administration of XYP (UPLC-MS/MS)
Type: in vivo, Sprague–Dawley rats
Parameters: Kel (elimination rate constant): unit not given here
Details: oral XYP 4 g/kg; for AUC(0-inf) / AUC(0-t) / Cmax / half-life / MRT last / MRT inf / Tmax: female, Sprague-Dawley; for MRT last: n = 6, read-out: MRT0–t; for MRT inf: n = 6, read-out: MRT0–∞; for Tmax: rat, plasma, po, 4 g/kg
Procedure: The validated UPLC-MS/MS method was successfully applied to the pharmacokinetic study of 14 compounds in rat plasma after the oral administration of XYP at a dose of 4 g/kg (8-fold the clinical dosage).
Quantitative analysis was conducted on a Waters® Micromass® Quattro Premier™ XE triple-quadrupole tandem mass spectrometer (Waters Corp., Milford, MA, USA). Chromatographic separation was performed on an ACQUITY UPLCTM BEH C18 column (1.7 µm, 50 × 2.1 mm; Waters Corp.) equipped with an ACQUITY UPLC C18 guard column. The column temperature was maintained at 35 °C. The mobile phase consisted of 0.1% formic acid in water (A) and acetonitrile (B). The total flow rate was 0.3 mL/min. Chromatographic separation was achieved using a 14.5-min gradient elution. The gradient conditions of the mobile phase were as follows: 0–4 min, 4–22% (B); 4–5 min, 22–27% (B); 5–10 min, 27–50% (B); and 10–14.5 min, 50–96% (B). The samples were kept at 4 °C in the auto-sampler, and the injection volume was 5 µL.
Methanol (1.5 mL), 10 μg/mL IS and 300 μL plasma was mixed, then vortexed for 1 min. After centrifuging at 14,000× g for 10 min, the supernatant was put into another centrifuge tube. The residue was vortexed with another 1.5 mL methanol and centrifuged again, and the two supernatants were combined and evaporated to dryness under a flow of nitrogen gas at 40 °C. The residue was then dissolved in 100 μL methanol and vortexed for 1 min. Finally, the vortexing and centrifugation process was again repeated, and 5 μL of the supernatant was injected into the UPLC-MS/MS system for analysis.
Twenty healthy female Sprague–Dawley rats (300 ± 20 g) were purchased from the Animal Safety Evaluation Center of Heilongjiang University of Chinese Medicine (Heilongjiang, China). All protocols for animal experiments were approved in accordance with the Regulations of Experimental Animal Administration issued by the State Commission of Science and Technology of the People’s Republic of China. The rats were kept under a light/dark cycle of 12 h, within the temperature range of 24 °C ± 2 °C to room temperature, and at a humidity of 50 ± 10%. All rats were fasted for 12 h before experimentation but were allowed to drink freely. XYP extract was dissolved in water, and the rats were administrated orally with 4 g/kg XYP. Blood samples were collected from the suborbital venous lexus at 0, 0.083, 0.17, 0.33, 0.50, 0.75, 1.0, 2.0, 4.0, 8.0, 12 and 24 h into 1.5-mL heparinized polythene tubes […]. The blood samples were immediately centrifuged at 4500 rpm for 10 min, and the plasma was stored at −80 °C until analysis. The pharmacokinetic parameters (Cmax, tmax, t1/2, Kel, AUC0–t, AUC0–∞, MRT0–t, MRT0–∞) were calculated with the software Winnolin 3.2.

[1] = mean ± SD, n = 6, read-out: tmax
[2] = read-out: tmax (time to maximum plasma concentration)

Structure (SMILES)	AUC(0-inf) (mean ± SD, n = 6) [µg·h/mL]	AUC(0-t) (mean ± SD, n = 6) [µg·h/mL]	Cmax (mean ± SD, n = 6) [µg/mL]	half-life (mean ± SD, n = 6) [h]	MRT last (mean ± SD) [h]	MRT inf (mean ± SD) [h]	Tmax [1] [h]	Kel (elimination rate constant) (mean ± SD, n = 6)	shape of plasma concentration-time curve	time of second maximal plasma concentration	Tmax [2] [h]	time of first detection in plasma [min]	t1/2 (mean ± SD, n = 6) [h]
C=C1CCC[C@]2(C)C[C@@H]3OC(=O)C(C)=C3C[C@@H]12 [Atractylenolide II, atractylenolide II]	0.0702 ± 0.0256	0.0695 ± 0.0257	0.0225 ± 0.00804	3.54 ± 1.21	4.15 ± 0.82	4.43 ± 0.98	0.64 ± 0.29	0.21 ± 0.07					
C[C@@]12C[C@@]3(O)O[C@@H](O1)[C@]1(COC(=O)c4ccccc4)[C@H]3C[C@@]12O[C@@H]1O[C@H](CO)[C@@H](O)[C@H](O)[C@H]1O [Paeoniflorin, paeoniflorin]	0.718 ± 0.227	0.697 ± 0.211	0.587 ± 0.181	4.82 ± 1.71	4.17 ± 1.38	4.91 ± 1.68	0.42 ± 0.09	0.16 ± 0.06					
O=C1C[C@@H](c2ccc(O)cc2)Oc2cc(O)ccc21 [Liquiritigenin, liquiritigenin]	0.328 ± 0.198	0.286 ± 0.144	0.0332 ± 0.012	6.43 ± 2.42	8.85 ± 1.09	11.5 ± 3.02	0.19 ± 0.07	0.12 ± 0.06	double peak	about 4 h			
CCC/C=C1\OC(=O)C2=C1CCC=C2 [Ligustilide, ligustilide]	0.207 ± 0.0585	0.194 ± 0.0577	0.065 ± 0.0422	5.44 ± 3.09	5.63 ± 2.32	7.47 ± 4.23	0.31 ± 0.13	0.17 ± 0.10			~0.3		
CC1(C)[C@@H](O[C@H]2O[C@H](C(=O)O)[C@@H](O)[C@H](O)[C@H]2O[C@@H]2O[C@H](C(=O)O)[C@@H](O)[C@H](O)[C@H]2O)CC[C@]2(C)[C@H]3C(=O)C=C4[C@@H]5C[C@@](C)(C(=O)O)CC[C@]5(C)CC[C@@]4(C)[C@]3(C)CC[C@@H]12 [Glycyrrhizic acid, glycyrrhizic acid]	0.156 ± 0.0596	0.138 ± 0.057	0.0186 ± 0.00661	7.63 ± 5.35	10.1 ± 0.58	13.6 ± 5.72	0.33 ± 0.11	0.12 ± 0.05	double peaks				
CC12CC(O)C3CC1(OC1OC(CO)C(O)C(O)C1O)C3(COC(=O)c1ccccc1)C(=O)O2 (centres unmarked) [Albiflorin, albiflorin]	0.135 ± 0.0656	0.128 ± 0.0649	0.0583 ± 0.0275	7.11 ± 4.57	4.18 ± 1.58	6.34 ± 4.5	0.39 ± 0.09	0.13 ± 0.06					
CCC/C=C1\OC(=O)C2=C1CC[C@H](O)[C@H]2O [Senkyunolide I, senkyunolide I]	1.62 ± 0.967	1.58 ± 0.986	0.403 ± 0.201	4.75 ± 2.78	5.31 ± 0.72	6.37 ± 2.39	0.36 ± 0.13	0.18 ± 0.07					
C[C@H]1O[C@@H](O[C@H]2CC[C@@]3(C)[C@@H](CC[C@]4(C)[C@@H]3C=C[C@]35OC[C@@]6(CCC(C)(C)C[C@H]63)[C@@H](O)C[C@]54C)[C@]2(C)CO)[C@H](O)[C@@H](O[C@@H]2O[C@H](CO)[C@@H](O)[C@H](O)[C@H]2O)[C@H]1O [Saikosaponin a, saikosaponin a]	0.018 ± 0.00688	0.0163 ± 0.00515	0.00605 ± 0.0013	6.46 ± 2.57	6.61 ± 1.12	8.88 ± 3.49	0.42 ± 0.09	0.12 ± 0.03	double peaks				
C=C1CCC[C@]2(C)C[C@]3(O)OC(=O)C(C)=C3C[C@@H]12 [Atractylenolide III, atractylenolide III]	1.13 ± 0.487	1.04 ± 0.497	0.23 ± 0.108	6.95 ± 2.65	6.23 ± 1.55	8.6 ± 3.13	0.67 ± 0.26	0.11 ± 0.05					
O=C(/C=C/c1ccc(O)cc1)c1ccc(O)cc1O [Isoliquiritigenin, isoliquiritigenin]	0.185 ± 0.0899	0.157 ± 0.0767	0.0336 ± 0.00937	5.82 ± 3.25	5.98 ± 1.5	7.81 ± 3.39	0.39 ± 0.09	0.17 ± 0.12	double peak	about 4 h			
COc1cc(/C=C/C(=O)O)ccc1O [Ferulic acid, ferulic acid]	1.61 ± 0.853	1.58 ± 0.851	0.632 ± 0.244	5.3 ± 1.85	3.97 ± 0.8	4.66 ± 0.52	0.21 ± 0.1	0.15 ± 0.05			0.2	5	
C[C@@H]1O[C@@H](O[C@H]2[C@H](O)[C@@H](O)[C@H](O[C@H]3CC[C@]4(C)[C@H]5C=C[C@]67OC[C@@]8(CCC(C)(C)C[C@H]86)[C@@H](O)C[C@@]7(C)[C@]5(C)CC[C@H]4C3(C)C)O[C@@H]2CO[C@@H]2O[C@H](CO)[C@@H](O)[C@H](O)[C@H]2O)[C@H](O)[C@H](O)[C@H]1O [Saikosaponin c, saikosaponin c]	0.00593 ± 0.00219	0.00561 ± 0.00192	0.00096 ± 0.00033	4.23 ± 2.83	6.49 ± 1.17	7.67 ± 2.7	0.42 ± 0.09	0.22 ± 0.11	double peaks				
O=c1c(O)c(-c2ccc(O)c(O)c2)oc2cc(O)cc(O)c12 [Quercetin, quercetin]	0.782 ± 0.415	0.766 ± 0.41	0.491 ± 0.168	4.09 ± 1.24	6.4 ± 0.85	7.03 ± 1.02	0.1 ± 0.03	0.19 ± 0.07		~8 h	0.1		
O=C1C[C@@H](c2ccc(O[C@@H]3O[C@H](CO)[C@@H](O)[C@H](O)[C@H]3O)cc2)Oc2cc(O)ccc21 [Liquiritin, liquiritin]	0.181 ± 0.0909	0.163 ± 0.0915	0.0579 ± 0.0366		5.7 ± 1.25	10.2 ± 6.79	0.39 ± 0.09	0.09 ± 0.04	double peak				9.32 ± 5.49
